# According to US20150087627A1, “COMBINATION OF KINASE INHIBITORS AND USES THEREOF” (Intellikine LLC, priority 2011, published 2015):
# Like-named read-outs stand apart in the source and are kept apart here.
# Experiments:
# Type in all cases: biochemical
# [1] = biological target: T1, PI3K δ (Homo sapiens, UniProt O00329); assay: PI 3-Kinase (human) HTRF assay, PI3K δ; details: read-out: PI3K δ IC50
# T1 construct: purchased Upstate / Millipore Corporation
# [2] = biological target: T2, PI3K α (p110α/p85α) (Homo sapiens, UniProt P42336); assay: PI 3-Kinase (human) HTRF assay, PI3K α; details: read-out: PI3K α IC50
# T2 construct: purchased Upstate / Millipore Corporation
# T2 sequence (P42336 whole entry): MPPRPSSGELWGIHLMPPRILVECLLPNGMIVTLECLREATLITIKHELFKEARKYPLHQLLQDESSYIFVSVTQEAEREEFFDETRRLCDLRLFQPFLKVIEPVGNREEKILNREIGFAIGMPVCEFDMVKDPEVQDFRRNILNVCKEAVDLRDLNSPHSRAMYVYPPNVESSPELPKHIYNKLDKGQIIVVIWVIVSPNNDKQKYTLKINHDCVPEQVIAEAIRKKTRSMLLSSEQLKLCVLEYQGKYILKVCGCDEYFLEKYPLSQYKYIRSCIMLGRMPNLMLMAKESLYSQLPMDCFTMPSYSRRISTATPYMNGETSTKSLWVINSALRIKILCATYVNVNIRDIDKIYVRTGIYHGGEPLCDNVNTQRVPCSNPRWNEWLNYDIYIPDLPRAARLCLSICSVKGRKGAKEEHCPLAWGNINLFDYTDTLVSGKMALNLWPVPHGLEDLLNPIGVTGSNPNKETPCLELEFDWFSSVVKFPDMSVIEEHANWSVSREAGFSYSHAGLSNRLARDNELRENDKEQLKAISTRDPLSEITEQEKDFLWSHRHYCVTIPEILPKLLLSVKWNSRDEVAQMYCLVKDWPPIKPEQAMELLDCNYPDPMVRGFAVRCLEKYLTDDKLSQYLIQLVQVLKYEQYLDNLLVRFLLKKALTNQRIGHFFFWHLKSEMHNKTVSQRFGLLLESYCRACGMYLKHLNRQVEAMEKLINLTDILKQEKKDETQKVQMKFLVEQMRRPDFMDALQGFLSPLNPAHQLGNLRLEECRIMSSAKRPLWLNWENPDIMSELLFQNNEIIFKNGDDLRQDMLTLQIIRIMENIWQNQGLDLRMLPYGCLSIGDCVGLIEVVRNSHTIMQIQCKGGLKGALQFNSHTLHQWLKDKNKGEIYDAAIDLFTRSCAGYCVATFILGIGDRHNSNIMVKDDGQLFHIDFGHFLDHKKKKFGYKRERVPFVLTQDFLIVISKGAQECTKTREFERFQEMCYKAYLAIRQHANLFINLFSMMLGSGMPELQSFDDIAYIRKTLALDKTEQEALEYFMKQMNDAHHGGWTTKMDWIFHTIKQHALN
# T2 sequence (P27986 whole entry partner): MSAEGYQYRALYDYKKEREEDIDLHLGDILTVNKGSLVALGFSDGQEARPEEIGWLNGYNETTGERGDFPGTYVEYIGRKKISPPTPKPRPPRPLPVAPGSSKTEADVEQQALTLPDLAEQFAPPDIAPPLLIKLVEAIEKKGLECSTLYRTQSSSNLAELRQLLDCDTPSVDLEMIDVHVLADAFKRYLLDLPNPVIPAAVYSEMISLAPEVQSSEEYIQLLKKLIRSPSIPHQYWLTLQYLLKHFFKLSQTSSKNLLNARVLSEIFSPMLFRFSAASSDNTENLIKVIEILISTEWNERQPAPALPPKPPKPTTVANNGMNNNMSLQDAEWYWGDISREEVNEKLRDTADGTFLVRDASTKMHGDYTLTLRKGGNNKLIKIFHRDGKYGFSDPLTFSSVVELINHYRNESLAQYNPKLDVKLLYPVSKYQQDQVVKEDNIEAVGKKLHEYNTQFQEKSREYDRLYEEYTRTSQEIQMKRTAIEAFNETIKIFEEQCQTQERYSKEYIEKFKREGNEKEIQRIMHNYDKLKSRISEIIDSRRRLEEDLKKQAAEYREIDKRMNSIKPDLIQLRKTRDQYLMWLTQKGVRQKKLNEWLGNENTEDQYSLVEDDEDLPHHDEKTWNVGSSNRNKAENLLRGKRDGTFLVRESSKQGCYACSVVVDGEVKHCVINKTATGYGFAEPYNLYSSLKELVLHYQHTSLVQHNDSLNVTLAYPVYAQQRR
# [3] = biological target: T3, PI3K β (p110β/p85α) (Homo sapiens, UniProt P42338); assay: PI 3-Kinase (human) HTRF assay, PI3K β; details: read-out: PI3K β IC50
# T3 construct: purchased Upstate / Millipore Corporation
# T3 sequence (P42338 whole entry): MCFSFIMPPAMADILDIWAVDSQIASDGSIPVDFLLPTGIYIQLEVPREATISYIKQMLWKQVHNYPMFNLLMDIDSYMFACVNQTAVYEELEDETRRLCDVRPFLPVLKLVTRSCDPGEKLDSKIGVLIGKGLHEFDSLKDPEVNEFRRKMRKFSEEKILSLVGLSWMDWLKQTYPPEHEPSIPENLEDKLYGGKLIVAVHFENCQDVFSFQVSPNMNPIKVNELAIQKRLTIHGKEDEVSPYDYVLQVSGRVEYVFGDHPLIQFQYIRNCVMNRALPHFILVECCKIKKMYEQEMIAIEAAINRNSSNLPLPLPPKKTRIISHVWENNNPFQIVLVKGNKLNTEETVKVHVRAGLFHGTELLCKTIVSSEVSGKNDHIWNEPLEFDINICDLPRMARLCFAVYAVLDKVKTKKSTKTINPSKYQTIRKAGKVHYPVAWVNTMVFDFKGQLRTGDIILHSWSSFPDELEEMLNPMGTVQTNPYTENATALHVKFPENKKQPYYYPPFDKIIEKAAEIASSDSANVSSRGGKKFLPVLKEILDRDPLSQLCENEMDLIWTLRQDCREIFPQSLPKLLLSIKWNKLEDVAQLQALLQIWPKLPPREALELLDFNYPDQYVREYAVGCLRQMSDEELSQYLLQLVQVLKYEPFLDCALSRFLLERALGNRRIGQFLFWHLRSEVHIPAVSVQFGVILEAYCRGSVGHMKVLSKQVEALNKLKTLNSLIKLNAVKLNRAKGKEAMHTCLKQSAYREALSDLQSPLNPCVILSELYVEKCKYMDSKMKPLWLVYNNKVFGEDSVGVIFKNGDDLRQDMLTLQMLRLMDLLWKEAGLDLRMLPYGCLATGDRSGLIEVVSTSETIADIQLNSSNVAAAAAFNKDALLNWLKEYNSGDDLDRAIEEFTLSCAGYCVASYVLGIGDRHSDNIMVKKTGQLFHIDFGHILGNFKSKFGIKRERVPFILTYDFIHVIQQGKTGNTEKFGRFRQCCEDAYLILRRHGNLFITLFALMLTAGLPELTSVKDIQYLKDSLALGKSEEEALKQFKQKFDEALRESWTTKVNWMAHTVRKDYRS
# T3 sequence (P27986 whole entry partner): as the sequence (P27986 whole entry partner) above
# T1 sequence (O00329 whole entry): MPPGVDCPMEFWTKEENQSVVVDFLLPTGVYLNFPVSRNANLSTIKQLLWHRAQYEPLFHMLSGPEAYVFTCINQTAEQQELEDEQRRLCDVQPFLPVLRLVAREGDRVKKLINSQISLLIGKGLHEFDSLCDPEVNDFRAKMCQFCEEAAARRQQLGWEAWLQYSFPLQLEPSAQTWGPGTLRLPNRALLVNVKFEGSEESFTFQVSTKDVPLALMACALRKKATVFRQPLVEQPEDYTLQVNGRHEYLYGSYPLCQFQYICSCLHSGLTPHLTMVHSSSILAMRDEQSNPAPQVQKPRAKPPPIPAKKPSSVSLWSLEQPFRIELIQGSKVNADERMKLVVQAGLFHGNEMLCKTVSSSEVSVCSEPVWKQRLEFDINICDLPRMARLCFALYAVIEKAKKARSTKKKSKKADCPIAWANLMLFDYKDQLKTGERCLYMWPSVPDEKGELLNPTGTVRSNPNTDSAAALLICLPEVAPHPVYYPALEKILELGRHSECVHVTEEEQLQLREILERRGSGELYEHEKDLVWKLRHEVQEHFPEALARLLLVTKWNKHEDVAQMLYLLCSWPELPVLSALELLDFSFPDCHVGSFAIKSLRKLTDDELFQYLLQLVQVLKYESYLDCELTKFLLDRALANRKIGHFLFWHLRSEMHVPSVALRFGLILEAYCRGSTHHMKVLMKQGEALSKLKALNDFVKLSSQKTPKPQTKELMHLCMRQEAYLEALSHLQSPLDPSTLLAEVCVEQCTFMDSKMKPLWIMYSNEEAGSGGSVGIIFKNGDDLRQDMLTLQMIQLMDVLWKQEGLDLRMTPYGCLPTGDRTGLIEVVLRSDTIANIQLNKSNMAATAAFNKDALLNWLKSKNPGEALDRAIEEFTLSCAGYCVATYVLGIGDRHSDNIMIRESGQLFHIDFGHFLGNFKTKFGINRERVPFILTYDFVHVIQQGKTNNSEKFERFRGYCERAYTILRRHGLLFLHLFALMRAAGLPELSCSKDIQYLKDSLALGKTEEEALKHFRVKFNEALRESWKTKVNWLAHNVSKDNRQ
# T1 sequence (P27986 whole entry partner): as the sequence (P27986 whole entry partner) above
SMILES,IC50 [1] [µM],IC50 [2] [µM],IC50 [3] [µM],IC50 ([2]; Table 4 (PI3K α inhibitors)) [µM],IC50 ([3]; Table 4 (PI3K α inhibitors)) [µM],IC50 ([1]; Table 4 (PI3K α inhibitors)) [µM]
Nc1nc2cc(-c3ccc4nccc(-c5cn[nH]c5)c4c3)ccc2o1 [Compound 20],< 0.1,< 0.1,< 0.1,–,–,–
Nc1nc2cc(-c3ccc4ncc(-c5cccnc5)n4c3)ccc2o1 [Compound 37],< 0.1,< 0.1,–,–,–,–
Nc1nc2cc(-c3ccc4ncc(C#CC5CC5)n4c3)ccc2o1 [Compound 39],< 0.1,< 0.1,–,–,–,–
Nc1nc2cc(-c3ccc4ncn(C5CCNCC5)c(=O)c4c3)ccc2o1 [Compound 75],> 10,< 0.1,< 10,–,–,–
Nc1nc2cc(-c3ccc4ncc(-c5cn[nH]c5)nc4c3)ccc2o1 [Compound 78],< 1,< 0.1,< 1,–,–,–
Cn1cc(-c2cnc3ccc(-c4ccc5oc(N)nc5c4)cc3n2)cn1 [Compound 94],< 10,< 0.1,< 1,–,–,–
CN(C)CC(=O)N1CCC(Nc2ncnc3ccc(-c4ccc5oc(N)nc5c4)cc23)CC1 [Compound 103],< 1,< 0.1,< 1,–,–,–
Nc1nc2cc(-c3ccc4ncc(C(=O)N5CCS(=O)(=O)CC5)n4c3)ccc2o1 [Compound 107],> 10,< 1,> 10,–,–,–
CN1CCN(c2cnc3ccc(-c4ccc5nc(N)oc5c4)cc3n2)CC1 [Compound 118],> 10,< 1,< 0.1,–,–,–
CC1CN(c2cnc3ccc(-c4ccc5oc(N)nc5c4)cc3n2)CC(C)N1 (stereo not shown) [Compound 131],< 1,< 1,< 1,–,–,–
CC(N)C(=O)N1CCN(c2cnc3ccc(-c4ccc5oc(N)nc5c4)cc3n2)CC1 (stereo not shown) [Compound 134],< 1,< 0.1,< 1,–,–,–
CN1CCN(C(=O)c2cnc3ccc(-c4ccc5sc(N)nc5c4)cn23)CC1 [Compound 144],> 10,< 1,< 10,–,–,–
CN1CCN(C(=O)c2cnc3ccc(-c4ccc5nc(N)oc5c4)cn23)CC1 [Compound 145],> 10,< 1,< 10,–,–,–
CC1CN(c2cnc3ccc(-c4ccc5oc(N)nc5c4)cc3n2)CCO1 (stereo not shown) [Compound 173],< 10,< 0.1,< 1,–,–,–
C[C@H]1CN(c2cnc3ccc(-c4ccc5oc(N)nc5c4)cc3n2)CCN1 [Compound 178],< 1,< 0.1,< 0.1,–,–,–
C[C@@H]1CN(c2cnc3ccc(-c4ccc5oc(N)nc5c4)cc3n2)CCN1 [Compound 179],–,< 0.1,< 1,–,–,–
CCNC(=O)c1cnc2ccc(-c3ccc4oc(N)nc4c3)cn12 [Compound 188],< 1,< 0.1,< 1,–,–,–
CS(=O)(=O)CCN1CCN(C(=O)c2cnc3ccc(-c4ccc5oc(N)nc5c4)cn23)CC1 [Compound 198],< 10,< 0.1,< 10,–,–,–
Nc1nc2cc(-c3ccc4ncc(C(=O)N5CCC(O)C5)n4c3)ccc2o1 (stereo not shown) [Compound 202],< 10,< 0.1,< 10,–,–,–
Nc1nc2cc(-c3ccc4ncc(C(=O)N5CCC(N)CC5)n4c3)ccc2o1 [Compound 204],> 10,< 0.1,< 1,–,–,–
CC(C)(N)C(=O)N1CCN(c2cnc3ccc(-c4ccc5oc(N)nc5c4)cc3n2)CC1 [Compound 213],< 1,< 0.1,< 1,–,–,–

SMILES,IC50 [1] [µM],IC50 [2] [µM],IC50 [3] [µM],IC50 ([2]; Table 4 (PI3K α inhibitors)) [µM],IC50 ([3]; Table 4 (PI3K α inhibitors)) [µM],IC50 ([1]; Table 4 (PI3K α inhibitors)) [µM]
Nc1nc2cc(-c3ccc4ncc(N5CC(O)C5)nc4c3)ccc2o1 [Compound 216],< 10,< 0.1,< 1,–,–,–
Nc1nc2cc(-c3ccc4ncc(NCCCN5CCCC5)nc4c3)ccc2o1 [Compound 221],< 0.1,< 0.1,< 1,–,–,–
CN1CCN(C2CCN(c3cnc4ccc(-c5ccc6oc(N)nc6c5)cc4n3)CC2)CC1 [Compound 227],< 0.1,< 0.1,< 1,–,–,–
Nc1nc2cc(-c3ccc4nnc(-c5ccncc5)n4c3)ccc2o1 [Compound 229],> 10,< 1,< 1,–,–,–
CC(Oc1nc(-c2ccc3oc(N)nc3c2)cnc1N)C(F)(F)F (stereo not shown) [Compound 239],< 10,< 10,< 1,–,–,–
CC(=O)Nc1nc2cc(-c3ccc4oc(N)nc4c3)ccc2o1 [Compound 244],> 10,> 10,> 10,–,–,–
NC(=O)[C@H]1CCCN1C(=O)c1cnc2ccc(-c3ccc4oc(N)nc4c3)cn12 [Compound 260],> 10,< 1,> 10,–,–,–
Nc1nc2cc(-c3ccc4ncc(N5CCN(C6CC6)CC5)nc4c3)ccc2o1 [Compound 261],> 10,< 0.1,< 1,–,–,–
Nc1nc2cc(-c3ccc4ncc(C(=O)N5CC[C@H](O)C5)n4c3)ccc2o1 [Compound 264],–,< 0.1,< 10,–,–,–
Nc1nc2cc(-c3ccc4ncc(C(=O)N5CC[C@@H](O)C5)n4c3)ccc2o1 [Compound 265],–,< 0.1,< 10,–,–,–
CCN(CC)CCCn1cnc2ccc(-c3ccc4oc(N)nc4c3)cc2c1=O [Compound 281],< 10,< 1,> 10,–,–,–
NC(=O)[C@@H]1CCCN1C(=O)C1CN(c2cnc3ccc(-c4ccc5oc(N)nc5c4)cc3n2)C1 [Compound 283],> 10,< 0.1,> 10,–,–,–
NC(=O)[C@H]1CCCN1C(=O)C1CN(c2cnc3ccc(-c4ccc5oc(N)nc5c4)cc3n2)C1 [Compound 284],< 10,< 0.1,< 10,–,–,–
Nc1nc2cc(-c3ccc4ncc(C(=O)NCCN5CCCC5)n4c3)ccc2o1 [Compound 296],< 1,< 1,< 10,–,–,–
Nc1nc2cc(-c3ccc4nnc(-c5cccnc5)n4c3)ccc2o1 [Compound 300],> 10,< 10,< 10,–,–,–
CN(C)C1CCN(C(=O)c2cnc3ccc(-c4ccc5oc(N)nc5c4)cn23)CC1 [Compound 304],> 10,< 1,> 10,–,–,–
C[C@H]1CN(c2cnc3ccc(-c4ccc5nc(N)sc5c4)cc3n2)CCN1 [Compound 308],> 10,< 1,< 1,–,–,–
C[C@H]1CN(c2cnc3ccc(-c4cccc5c(N)nsc45)cc3n2)CCN1 [Compound 321],> 10,> 10,> 10,–,–,–
Nc1nc2cc(-c3ccc4ncc(N5CC(N6CCNC(=O)C6)C5)nc4c3)ccc2o1 [Compound 325],< 10,< 0.1,< 1,–,–,–
CC1(C)CN(c2cnc3ccc(-c4ccc5oc(N)nc5c4)cc3n2)CCN1 [Compound 336],< 10,< 1,< 1,–,–,–
C[C@H]1CN(c2cnc3cccc(-c4ccc5oc(N)nc5c4)c3n2)CCN1 [Compound 342],> 10,> 10,> 10,–,–,–

SMILES,IC50 [1] [µM],IC50 [2] [µM],IC50 [3] [µM],IC50 ([2]; Table 4 (PI3K α inhibitors)) [µM],IC50 ([3]; Table 4 (PI3K α inhibitors)) [µM],IC50 ([1]; Table 4 (PI3K α inhibitors)) [µM]
C[C@H]1CN(c2cnc3cccc(-c4ccc5nc(N)oc5c4)c3n2)CCN1 [Compound 343],> 10,> 10,< 10,–,–,–
Nc1nc2cc(-c3ccn4ncc(C(=O)N5CCCC5)c4c3)ccc2o1 [Compound 346],> 10,< 0.1,< 10,–,–,–
CN(C)[C@H]1CCN(c2cnc3ccc(-c4ccc5oc(N)nc5c4)cc3n2)C1 [Compound 382],–,< 0.1,< 1,–,–,–
CN1CCN(c2cnc3ccc(-c4ccc5oc(N)nc5c4)cc3n2)C(=O)C1 [Compound 390],–,< 10,–,–,–,–
C[C@H]1CCCN1C(=O)c1cnc2ccc(-c3ccc4oc(N)nc4c3)cn12 [Compound 482],–,< 0.1,> 10,–,–,–
Cn1ncc2c(-c3ccc4ncc(C(=O)N5CCOCC5)n4c3)cncc21 [Compound 537],> 10,–,> 10,–,–,–
Nc1nc2cc(-c3ccc4ncc(C(=O)NCCOCCO)n4c3)ccc2o1 [Compound 550],< 10,–,< 10,–,–,–
C[C@H]1CN(c2cnc3ccc(-c4ccc5oc(N)nc5c4)nc3n2)CCN1 [Compound 552],–,–,–,< 1,< 0.1,–
Nc1nc2cc(-c3ccc4ncc(-c5cccnc5)nc4n3)ccc2o1 [Compound 554],–,–,–,< 1,–,> 10
CN1CCN(c2cnc3ccc(-c4ccc5oc(N)nc5c4)nc3n2)CC1 [Compound 555],–,–,–,< 1,< 1,–
Nc1nc2cc(-c3ccc4ncc(-c5cccnc5)cc4n3)ccc2o1 [Compound 567],–,–,–,< 0.1,–,–
C[C@@H]1CN(C2CN(c3cnc4ccc(-c5ccc6oc(N)nc6c5)nc4n3)C2)CCN1C [Compound 576],–,–,–,< 0.1,> 10,–
NCC(=O)N1CCN(c2cnc3ccc(-c4ccc5oc(N)nc5c4)nc3n2)CC1 [Compound 584],–,–,–,< 0.1,–,–
C[C@@H]1CN(c2cnc3ccc(-c4ccc5oc(N)nc5c4)nc3c2)CCN1 [Compound 599],–,–,–,< 0.1,< 1,–
C[C@@H]1COCCN1C1CN(c2cnc3ccc(-c4ccc5oc(N)nc5c4)nc3n2)C1 [Compound 600],–,–,–,–,> 10,> 10
C[C@@H]1CN(C2CN(c3cnc4ccc(-c5ccc6oc(N)nc6c5)nc4c3)C2)CCN1C [Compound 608],–,–,–,< 0.1,–,< 1
Nc1nc2cc(-c3ccc4ncc(N5CC(N6CCN(C7CC7)CC6)C5)nc4n3)ccc2o1 [Compound 620],–,–,–,< 0.1,–,–
Nc1nc2cc(-c3cnc4ccc(N5CCOCC5)nc4c3)ccc2o1 [Compound 624],–,–,–,–,> 10,> 10
CC(C)(N)C(=O)N1CCN(c2ccc3ncc(-c4ccc5oc(N)nc5c4)cc3n2)CC1 [Compound 633],–,–,–,–,> 10,> 10
